Experimental data taken from publication PMC6521205 (Viruses, 2019).
Where two headings read alike, the source gives them in different places.

How the values were obtained:
[1] = test system: ZIKV H/PAN/2016/BEI-259634; experiment: CellTiter-Glo activity assay, ZIKV H/PAN-infected neural stem cells; format: cell-based, Zika virus; conditions: read-out: EC50 H/PAN ZIKV
human neural stem cells = experiment: CellTiter-Glo toxicity in mock-infected neural stem cells; conditions: mock-infected neural stem cells, 72 h, CellTiter-Glo, ± SE, n = 4
[2] = test system: ZIKV PRVABC59/Human/2015/Puerto Rico; experiment: CellTiter-Glo activity assay, ZIKV PRVABC59-infected neural stem cells; format: cell-based, Zika virus; conditions: for EC50: human neural stem cells, MOI 10, 72 h post-infection, CellTiter-Glo, ± SE, n = 4
[3] = test system: ZIKV H/PAN/2016/BEI-259634; experiment: Plaque assay of ZIKV titers from treated hNSC cultures; format: cell-based, Zika virus; conditions: human fetal neural stem cells, H/PAN MOI 0.1, 48 h post-infection
[4] = test system: ZIKV H/PAN/2016/BEI-259634; format: cell-based, Zika virus; conditions: GSC 387 cells, H/PAN MOI 10, 72 h post-infection
ZIKV RdRP = ZIKV RdRP (Zika virus, UniProt A0A024B7W1); experiment: Single nucleotide incorporation assay; format: biochemical; conditions: 150 µM nucleotide, 37 °C; for observed rate of incorporation, kobs: 1 µM RdRP, 200 nM P/T substrate, single exponential fit, n = 2
Sequence of ZIKV RdRP (A0A024B7W1 2772-3423): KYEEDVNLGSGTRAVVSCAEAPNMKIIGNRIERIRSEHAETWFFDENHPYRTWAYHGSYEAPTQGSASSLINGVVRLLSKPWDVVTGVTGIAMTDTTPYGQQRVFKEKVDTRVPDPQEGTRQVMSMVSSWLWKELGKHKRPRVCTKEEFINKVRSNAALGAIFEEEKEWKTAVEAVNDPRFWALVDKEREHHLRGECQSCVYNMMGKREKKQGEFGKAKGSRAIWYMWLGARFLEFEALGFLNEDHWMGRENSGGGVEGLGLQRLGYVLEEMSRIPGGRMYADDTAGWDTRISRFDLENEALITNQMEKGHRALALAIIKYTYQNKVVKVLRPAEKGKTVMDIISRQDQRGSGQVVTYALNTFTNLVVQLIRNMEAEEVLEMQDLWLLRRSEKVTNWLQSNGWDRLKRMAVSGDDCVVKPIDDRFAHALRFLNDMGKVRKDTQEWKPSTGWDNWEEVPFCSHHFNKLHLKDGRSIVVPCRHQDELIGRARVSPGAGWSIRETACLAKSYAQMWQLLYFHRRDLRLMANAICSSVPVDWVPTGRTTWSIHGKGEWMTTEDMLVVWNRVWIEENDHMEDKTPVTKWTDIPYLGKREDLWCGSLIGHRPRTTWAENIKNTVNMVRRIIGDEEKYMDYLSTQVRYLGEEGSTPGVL

[5] = CellTiter-Glo toxicity in mock-infected neural stem cells; conditions: human
[6] = human neural stem cells, MOI 10, 72 h post-infection, CellTiter-Glo, ± SE, n = 4
[7] = Zika virus, Neural stem cell, in Homo sapiens

Structure (SMILES) | EC50 [1, 6] [µM] | CC50 (human neural stem cells) [µM] | EC50 [2] [µM] | other results
C#CC1(O)C(O)C(COP(=O)(NC(C)C(=O)OC(C)C)Oc2ccccc2)OC1n1ccc(=O)[nH]c1=O (centres unmarked) [2′-C-Ethynyluridine Aryloxy Phosphoramidate] | 0.8 ± 1 | > 50 | – | –
CC(C)OC(=O)C(C)NP(=O)(OCC1OC(n2cnc3c(N)ncnc32)C(C)(O)C1O)Oc1ccccc1 (centres unmarked) [2′-C-Methyladenosine aryloxyl phosphoramidate] | 18 ± 1 | 42 ± 1 | 10 ± 1 | –
CC(C)OC(=O)C(C)NP(=O)(OCC1OC(n2ccc(N)nc2=O)C(C)(O)C1O)Oc1ccccc1 (centres unmarked) [2′-C-Methylcytidine aryloxyl phosphoramidate] | > 50 | – | 48 ± 1 | –
CC(C)OC(=O)C(C)NP(=O)(OCC1OC(n2ccc(=O)[nH]c2=O)C(C)(O)C1O)Oc1ccccc1 (centres unmarked) [2′-C-methyluridine aryloxyl phosphoramidate] | 2 ± 1 | 47 ± 1 | 1 ± 1 | ZIKV titers by plaque assay ([3]; 10 µM compound): undetectable levels; ZIKV titers by plaque assay ([3]; 30 µM compound): undetectable levels; protection from ZIKV-induced cytopathic effect ([4]; 10 µM compound): better able to protect against ZIKV-induced cytopathic effect; protection from ZIKV-induced cytopathic effect ([4]; 30 µM compound): able to protect against the cytopathic effect
C[C@@]1(O)[C@H](O)[C@@H](COP(=O)(O)OP(=O)(O)OP(=O)(O)O)O[C@H]1n1ccc(=O)[nH]c1=O [2′-C-methyluridine triphosphate] | – | – | – | observed rate of incorporation, kobs (ZIKV RdRP): 0.016 ± 0.001 % incorporation min^−1; maximal incorporation (plateau) (ZIKV RdRP): 35%; time to half maximal incorporation (ZIKV RdRP): ~ 45 min
COC1C(O)C(COP(=O)(NC(C)C(=O)OC(C)C)Oc2ccccc2)OC1n1ccc(N)nc1=O (centres unmarked) [2′-O-Methylcytidine aryloxyl phosphoramidate] | > 50 | > 50 | > 50 | –
C[C@@]1(F)[C@H](O)[C@@H](COP(=O)(O)OP(=O)(O)OP(=O)(O)O)O[C@H]1n1ccc(=O)[nH]c1=O [2′-fluoro-2′-C-methyluridine triphosphate] | – | – | – | observed rate of incorporation, kobs (ZIKV RdRP): 0.0085 ± 0.001 % incorporation min^−1; maximal incorporation (plateau) (ZIKV RdRP): 15%; time to half maximal incorporation (ZIKV RdRP): ~90 min
CC(C)OC(=O)C(C)NP(=O)(OCC1CC(O)C(n2cnc3c(N)ncnc32)O1)Oc1ccccc1 (centres unmarked) [3′-Deoxyadenosine aryloxyl phosphoramidate] | > 50 | > 50 | > 50 | –
CC(C)OC(=O)C(C)NP(=O)(OCC1CC(O)C(n2ccc(N)nc2=O)O1)Oc1ccccc1 (centres unmarked) [3′-Deoxycytidine aryloxyl phosphoramidate] | > 50 | > 50 | > 50 | –
COC1C(COP(=O)(NC(C)C(=O)OC(C)C)Oc2ccccc2)OC(n2ccc(=O)[nH]c2=O)C1O (centres unmarked) [3′-O-Methyluridine aryloxyl phosphoramidate] | > 50 | > 50 | > 50 | –
CSCCOP(=O)(NCCc1c[nH]c2ccccc12)OCC1OC(n2ccc(=O)[nH]c2=O)C(C)(O)C1O (centres unmarked) [(5-(2,4-dioxo-3,4-dihydropyrimidin-1(2H)-yl)-3,4-dihydroxy-4-methyltetrahydrofuran-2-yl)methyl (2-(methylthio)ethyl) (2-(1H-indol-3-yl)ethyl)phosphoramidate] | – | – | – | EC50 ([1]; Zika virus, Neural stem cell, human neural stem cells, MOI 10, 72 h post-infection, CellTiter-Glo, ± SE, n = 4): > 50 µM; CC50 at 72 h ([5]; mock-infected neural stem cells (NSCs)): > 50 µM; EC50 [2, 7]: > 50 µM; anti-ZIKV activity (in words) ([2]; neural stem cells, PRVABC59 and H/PAN strains, highest concentration 50 µM): completely abolished activity
CC(C)OC(=O)[C@H](C)N[P@](=O)(OC[C@H]1O[C@@H](n2ccc(=O)[nH]c2=O)[C@](C)(F)[C@@H]1O)Oc1ccccc1 [Sofosbuvir, reference compound] | – | – | – | ZIKV titers by plaque assay ([3]; 30 µM compound): undetectable levels; protection from ZIKV-induced cytopathic effect ([4]; 30 µM compound): able to protect against the cytopathic effect; EC50 ([1]; Zika virus, Neural stem cell, 72 h): 46 ± 1 µM; CC50 at 72 h [5]: > 50 µM; EC50 [2, 7]: 35 ± 1 µM
O=c1ccn([C@@H]2O[C@H](COP(=O)(O)OP(=O)(O)OP(=O)(O)O)[C@@H](O)[C@H]2O)c(=O)[nH]1 [UTP] | – | – | – | observed rate of incorporation, kobs (ZIKV RdRP): 0.151 ± 0.004 % incorporation min^−1; time to full incorporation (ZIKV RdRP): ~ 30 min; time to half maximal incorporation (ZIKV RdRP): ≤ 5 min
